Experiment [1] has as its system estrogen receptor (ER). The experiment is described as follows: adenoERreporter assay in breast cancer cells from metastatic effusions (pleural, ascites). It is filed as cell-based, human. The source says: In the case of metastatic fluid, 100 mls of the fluid was sent for cytological examination and staining for ER and PR. The remaining fluid was centrifuged and the cell pellets were pooled. This was re-suspended in RPMI-1640/1% FCS and tumour cell numbers estimated as before. If the cells were in clusters, trypsin/EDTA (Sigma, Poole, UK) was used to obtain single cell suspensions before filtering to remove any debris. The remaining steps were as above. The purified cells were either infected immediately or cultured for a few days prior to infection.
(§1) For infections of primary cells, 6-10,000 cells/well were allowed and exposed to the given quantity of virus, after which they were pelleted and re-supended in 200 ul of PR free/5% DSS medium containing the appropriate ligands prior to plating into 96-well plates.
(§2) Reporter Gene Assay 48 hours after virus infection, 20 ul of 20% Triton in PBS was added to each well and incubated at RT for 10 minutes. […] (CRPG) made up in TBS at a concentration of 8 mg/ml was then added to the wells and the plate was incubated, foil-wrapped, at 37° C. until a colour change was observed. Plate readings were taken at a wavelength of 547 nm.
(§3) We purified breast cancer cells from metastatic fluid, both pleural and ascites as well as fine needle aspirates (FNA) from recurrent breast cancer. These cells were counted and infected with adenoERreporter and after 48 hours a β-gal assay was performed. We have infected 9 metastatic effusions including 2 cell lines of passage number two, derived from pleural effusions and 4 FNAs. Tables 3 and 4 show the treatment history and characteristics of the patients that provided the samples. Where possible, some of the fluid was sent for cytology and ER staining.
(In general: In a reporter assay the amount or activity of a reporter protein is the signal.)

In experiment [2] the test system is estrogen receptor (ER). The experiment is described as follows: adeno-reporter assay in purified primary breast cancer cells (tumour, lymph node). It is filed as cell-based, human. The following applies: for Reporter response: E2 10 nM, OHT 100 nM, ICI 100 nM, 48 h. As for the experimental part: The product was then filtered through a nylon mesh (Lockertex Ltd, Merseyside, UK) and the filtrate centrifuged at 2000 rpm, at room temperature (RT). The pellet was re-suspended in 9 mls of RPMI/1% FCS and a cell count performed to estimate the number of tumour cells in the preparation. […] A count of viable tumour cells was performed using trypan blue (Sigma, Poole, UK) prior to seeding in breast complete medium (DMEM/F-12 containing, 15 mM Hepes, 2 mM L-glutamine, 100U/ml penicillin, O. 1 mg/ml streptomycin, 50 U/ml polymixin B, 2.5 μg/ml amphotericin B, 5 μg/ml insulin, 10 μg/ml apo-transferrin, 100 μM ethanolamine, 1 μg/ml hydrocortisone, 10 ng/ml EGF) plus 5% FCS) for culture. The cells were used for experiments on day 3 after the initial plating.
as §1
Cells were incubated for 48 hours following infections unless stated otherwise.
as §2
We have used the adeno-reporter to infect purified cells from breast cancer and lymph nodes of 19 patients. The reporter assay was performed in a blinded fashion since the IHC report of ER status was not available until after the experiments were complete. Viral infections were performed in suspension so as not to loose cancer cells since they were only loosely adherent. Following exposure to the virus for an hour, the cells were washed to remove excess virus and then plated and incubated in PR free/5% DSS supplemented with the given ligands for 48 hours.

The subject of experiment [3] is estrogen receptor (ER). The experiment in a line: adenoERreporter assay in fine needle aspirates (FNA) from recurrent breast cancer. It is filed as cell-based, human. The procedure:
Cells obtained from FNAs were collected in PBS (Sigma, Poole, UK) containing 2% FCS. If the aspirate was bloody, erythrocyte lysis buffer (0.155M NH4Cl, 10 mM KHCO3, 0.1 mM EDTA, pH 7.4) was used to lyse the red blood cells and after a further wash with PBS, the cells were re-suspended in culture media for counting and immediate infections.
as §1, §2
as §3, with “staining. However, this was not always feasible due to the variability of cancer cells in the metastatic fluid.” for “staining.”

Experiment [4] has as its system malignant mammary epithelial cells. The experiment is described as follows: effects of estradiol and tamoxifen on survival of purified malignant mammary epithelial cells (Trypan blue counts). It is filed as cell-based, human. The following applies: for effect on cell death: ER positive purified breast cancer cells, E2 10 nM, OHT 100 nM. As for the experimental part:
(§4) 1×10^5 cells were plated into the wells of 96 well plates. […] Total and viable (Trypan blue) cell counts were measured during the time course of the experiment.
(§5) Normal cells were studied at several time points whereas due to limited number of cells, studies were limited to 2 time points in tumors. Trypan Blue staining determined viable cell numbers.

For experiment [5], the system named is normal mammary epithelial cells. The experiment is described as follows: effects of estrogen and tamoxifen on purified normal mammary epithelial cells. The conditions noted are these: purified normal breast cells. It is filed as cell-based, human. The procedure: Cell viability was assessed using exclusion of Trypan blue staining. Proliferation of cells in culture was assessed by measuring tritiated thymidine (3HTdR) incorporation into DNA and using the MTS assay. For ^3HTdR-labelling, purified cells were seeded into the wells of 24-well dishes. The medium was subsequently changed for 0.5 ml of ^3HTdR-supplemented thymidine-free medium (RPMI, 2 mM L-glutamine, 100U/ml penicillin, 0.1 mg/ml streptomycin plus dialysed 2% FCS). The amount of incorporated ^3HTdR in the cultures was measured by scintillation counting following precipitation with trichloroacetic acid. MTS assays were carried out using the Cell Titre 96 (Promega, UK), according to manufacturer's protocols.
as §4, §5

The test system of the next experiment is ER positive tumours. The following applies: cited from earlier work.
For experiment [6], the system named is estrogen receptor (ER). The experiment is described as follows: viral ER reporter in ER negative breast cancer cell lines. It is filed as cell-based, human. The conditions noted are these: virus 100:1. The procedure: FIG. 3: Reporter activity in variety of estrogen receptor alpha positive (MCF-7, T47-D, ZR75-1, BT474) and negative (Cal-51, SkBr3, and MDA-MB231 cell lines). For each figure, the order is as follows: (1) refers to the no ligand control.
For adenovirus infections, cell lines were plated in 96 wells at the given density in phenol red free DMEM supplemented with 5% double-stripped serum (PR/5% DSS). The following day cells were exposed to the given quantity of plaque forming units per cell (multiplicity of infection, MOI) in PR/SF medium. This was incubated at 37° C. for 1 hour after which the media was replaced by PR free/5% DSS containing the ligands.
as §2
We went on to test the virus reporter in a variety of ER positive and ER negative cell lines. Again 0.5×10^5 cells were infected with 100 virus per cell (100:1). Using the GFP virus it was evident that the infectability of the cell lines was variable. […]

[7] abbreviates: Table 2 patient 5 Ln, ER+/PR−, Pre.
The mark [8] stands for this setting: Table 2 patient 8, ER+++/PR−, Post.
The mark [9] stands for this setting: Table 2 patient 12 Tu, Anaplastic small cell carcinoma, ER−/PR−.
The mark [10] stands for this setting: Table 2 patient 13, ER−/PR−, Post.

Consider 4-hydroxytamoxifen [4-OHT], for which the “effect on ER activity” value with estrogen receptor (ER) [1] (patient 4 (table 3), ascites, no previous treatment) is on record as “inhibitory”. For the same compound, the Reporter response entry in the experiment with estrogen receptor (ER) [2] (setting [7]), in the experiment on estrogen receptor (ER) [2] (setting [8]), in the experiment on estrogen receptor (ER) [2] (Table 2 patient 12 Ln), with estrogen receptor (ER) [2] (setting [9]), in the experiment on estrogen receptor (ER) [2] (setting [10]) and in the experiment with estrogen receptor (ER) [2] (Table 2 patient 15 Ln) was “ns” throughout. For the same compound, the Reporter response result with estrogen receptor (ER) [2] (Table 2 patient 15 Tu, ER−/PR−) is “ns”; with estrogen receptor (ER) [2] (Table 2 patient 16 Ln), “ns”; in the experiment on estrogen receptor (ER) [2] (Table 2 patient 16 Tu, Post) it was “ns”; in the experiment with estrogen receptor (ER) [2] (Table 2 patient 17) it was “ns”; in the experiment with estrogen receptor (ER) [2] (Table 2 patient 18, ER−/PR−), “ns”. Moreover, the “Reporter Assay: inhibition” value in the experiment with estrogen receptor (ER) [3] (FNA summary table, N = 1, IHC ER−/PR−, ?Responder) is “OHT/ICI inhibit by × 1.8”.
Consider `CC/C(=C(\c1ccccc1)c1ccc(OCCN(C)C)cc1)c1ccccc1` [tamoxifen], for which the “increase in reporter activity in the presence of tamoxifen” value in the experiment on estrogen receptor (ER) [1] (patient 1 (Table 3)) was “approximately 10 fold”. Besides, the “response of cells to tamoxifen” value in the experiment on estrogen receptor (ER) [1] (patient 3, table 3, previous tamoxifen for one year) was “continued to respond to tamoxifen”. For the same compound, the “effect on reporter compared with E2” value in the experiment with estrogen receptor (ER) [1] (patient samples 1, 5 and 6 (Table 3) and patient 6 (Table 4), relapsed after tamoxifen) was “an effect at least equivalent to E2”. Also, the “effect on reporter activity across patient samples” value with estrogen receptor (ER) [2] (purified cells from breast cancer and lymph nodes of 19 patients) is on record as “inhibitory in most cases but did show some agonistic activity in a proportion of patients”. Besides, in experiment [4] (7 tumors studied, responders all ER positive, viable counts by Trypan Blue), the “cell numbers after tamoxifen treatment compared to estradiol treatment” value is listed as “Four out of the 7 tumors studied showed significant reduction in cell numbers”. Moreover, the “effect on cell death” value in experiment [4] was “reversed”. In experiment [5], the effect on proliferation entry was “decrease”. Moreover, the “patients with ERα-positive disease that do not respond” value with ER positive tumours (breast cancer patients, adjuvant/metastatic treatment) is recorded as “approximately 30%”. Also, in the experiment with ER positive tumours (primary endocrine therapy (Gazet et al 1987)), the “patients with ER positive tumours that fail to respond” value is listed as approximately 50%.
With `C[C@]12CC[C@@H]3c4ccc(O)cc4CC[C@H]3[C@@H]1CC[C@@H]2O` [E2, 17β-estradiol], in the experiment on estrogen receptor (ER) [1] (ER positive relapsed patients, compared with primary breast tumour), the “stimulatory effect on the reporter above the background activity” value is “less of a stimulatory effect”. Besides, the “Reporter Activity” value in the experiment with estrogen receptor (ER) [1] (Table 3 patient 1) T2G2NxM0, PE, primary ER++/PR−, prior Tamoxifen 3y, Lentaron 5m) is recorded as “Ns”; with estrogen receptor (ER) [3] (Table 4 patient 1) T3G2N1M0, FNA ER−/PR−, no prior endocrine treatment), “Ns”. For the same compound, the Reporter response entry in the experiment on estrogen receptor (ER) [2] (setting [7]), in the experiment on estrogen receptor (ER) [2] (setting [8]), in the experiment on estrogen receptor (ER) [2] (Table 2 patient 12 Ln), in the experiment with estrogen receptor (ER) [2] (setting [9]), in the experiment with estrogen receptor (ER) [2] (setting [10]) and in the experiment with estrogen receptor (ER) [2] (Table 2 patient 15 Ln) was “ns” each time. In addition, the Reporter response result is given as “ns” in the experiment on estrogen receptor (ER) [2] (Table 2 patient 15 Tu, ER−/PR−); “ns” with estrogen receptor (ER) [2] (Table 2 patient 16 Ln); “ns” in the experiment on estrogen receptor (ER) [2] (Table 2 patient 16 Tu, Post); “ns” with estrogen receptor (ER) [2] (Table 2 patient 17); “ns” in the experiment with estrogen receptor (ER) [2] (Table 2 patient 18, ER−/PR−). Moreover, in experiment [4] (ER negative breast cancer cells), the “effect of estrogen on cells” value is on record as “no effect”. Besides, the “effect on cell death” value in experiment [4] is given as “reduction in cell death”. The “expression of estrogen-regulated genes after estrogen exposure” value in experiment [5] was “expressing both PR and PS2”. The “effect on ERE driven β-gal reporter / baseline activity” value in the experiment with estrogen receptor (ER) [6] is “no appreciable effect”.
